The numbers were not newly measured in patent US20050272649A1, “Conjoint administration of morphogens and ACE inhibitors in treatment of chronic renal failure” (priority 2002, published 2005), which cites them from elsewhere.

One data set concerns hypertension. The note with it: cited from earlier work; for safety / tolerability (in words): clinical studies.
For data set [1] the following is noted: oral administration; cited from earlier work.
In the next data set the target is T1, AT1 receptor (Homo sapiens, UniProt P30556).
T1 sequence (P30556 1-359): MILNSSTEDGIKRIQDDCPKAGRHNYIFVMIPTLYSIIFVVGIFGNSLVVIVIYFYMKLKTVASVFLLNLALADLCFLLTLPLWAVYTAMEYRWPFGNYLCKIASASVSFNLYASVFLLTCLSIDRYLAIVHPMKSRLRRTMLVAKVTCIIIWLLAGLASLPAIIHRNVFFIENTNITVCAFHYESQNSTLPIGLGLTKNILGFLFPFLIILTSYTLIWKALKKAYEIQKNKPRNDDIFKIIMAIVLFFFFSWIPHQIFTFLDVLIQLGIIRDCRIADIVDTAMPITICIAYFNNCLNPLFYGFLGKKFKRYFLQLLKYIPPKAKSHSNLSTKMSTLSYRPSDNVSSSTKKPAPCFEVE
The conditions noted are these: cited from earlier work.

Setting [2] is: comparator and dosages as stated in the sentence.
[3] abbreviates: olmesartan medoxomil 20 mg starting dose.

Entries after “also recorded” stand apart in the source; their conditions may differ. Read-outs that look alike come from different tables or passages of the source.

Regarding `CCCCc1nc(Cl)c(CO)n1Cc1ccc(-c2ccccc2-c2nn[nH]n2)cc1` [Losartan], the “safety / tolerability (in words)” value with hypertension was “well tolerated”. The “antihypertensive efficacy compared (in words)” value in the data set with hypertension (comparator and dosages) is “as efficacious as enalapril and nifedipine for lowering blood pressure; also recorded: no significant difference in antihypertensive efficacy”. Further, in the data set with hypertension (losartan), the “duration of activity for a dose” value was 24 h.

Regarding `CCOc1nc2cccc(C(=O)O)c2n1Cc1ccc(-c2ccccc2-c2nnn[nH]2)cc1` [Candesartan], in data set [1], the “oral absorption / bioavailability / pharmacokinetics (in words)” value is on record as “poorly absorbed after oral administration”. In the data set with hypertension (candesartan 16 mg per day), the “diastolic blood pressure reduction, adjusted mean more than the 50-mg losartan dosage” value is reported as 3.7 mm Hg. Also, in the data set with hypertension, the “safety / tolerability (in words)” value was “both safe and well tolerated”. The “antihypertensive efficacy compared (in words)” value with hypertension (setting [2]) is “Comparable reductions of diastolic blood pressure”. The “affinity for the AT1 receptor relative to affinity for the AT2 receptor” value on AT1 receptor is given as “more than 10,000 times”.

For `CCCCC(=O)N(Cc1ccc(-c2ccccc2-c2nnn[nH]2)cc1)[C@H](C(=O)O)C(C)C` [Valsartan], the “safety / tolerability (in words)” value in the data set on hypertension was “both safe and effective”. Moreover, in the data set on hypertension (setting [2]), the “antihypertensive efficacy compared (in words)” value is “as effective as ACE inhibitors enalapril, lisinopril and amlodipine”.

For `CCOc1nc2cccc(C(=O)OC(C)OC(=O)OC3CCCCC3)c2n1Cc1ccc(-c2ccccc2-c2nnn[nH]2)cc1` (stereo not drawn) [candesartan cilexetil], the “oral absorption / bioavailability / pharmacokinetics (in words)” value in data set [1] was “improves bioavailability; also recorded: conversion to the active compound occurs rapidly and completely”.

For the compound `CCCc1nc(C(C)(C)O)c(C(=O)OCc2oc(=O)oc2C)n1Cc1ccc(-c2ccccc2-c2nnn[nH]2)cc1` [olmesartan medoxomil], the “antihypertensive efficacy compared (in words)” value with hypertension (setting [2]) is listed as “superior to losartan”. Also, in the data set with hypertension (setting [3]), the “reduction of diastolic pressure (average)” value was 12 mm Hg and the “reduction of systolic pressure (average)” value is 15 mm Hg.

Regarding `CCCc1nc2c(C)cc(-c3nc4ccccc4n3C)cc2n1Cc1ccc(-c2ccccc2C(=O)O)cc1` [Telmisartan], in data set [1], the “oral absorption / bioavailability / pharmacokinetics (in words)” value is “Nonlinear pharmacokinetics”. For the same compound, the “safety / tolerability (in words)” value in the data set with hypertension was “side effect profile similar to that of placebo; also recorded: no rebound hypertension or first-dose orthostatic effect”. Moreover, in the data set with hypertension (setting [2]), the “antihypertensive efficacy compared (in words)” value is recorded as “slightly greater antihypertensive effect than enalapril”.

With `CCCCC1=NC2(CCCC2)C(=O)N1Cc1ccc(-c2ccccc2-c2nnn[nH]2)cc1` [Irbesartan], in the data set on hypertension, the “safety / tolerability (in words)” value was “safe and effective”. The “antihypertensive efficacy compared (in words)” value in the data set with hypertension (setting [2]) is “as effective as enalapril and atenolol in reducing blood pressure”; in the data set with hypertension (comparator and dosages as stated in the sentence, listed as irbesartan), “significantly greater”. For the same compound, the “affinity for the AT1 receptor relative to affinity for the AT2 receptor” value at AT1 receptor is on record as “more than 8,500 times”.
